Results on one substance are retold here after patent US11421026B2, “Antibodies that bind human cannabinoid 1 (CB1) receptor” (BIRD ROCK BIO, Inc., priority 2015, dated 2022).

In assay [1] the test system is Daudi cells. The assay can be described thus: ADCC assay. Format: cell-based. The method, then:
For ADCC assay, Daudi target cell concentration was adjusted to 12.5×10^4 cells/mL with ADCC medium. 80 μL of cell suspension (1×10^4 viable cells) was added to each well of a round-bottom 96-well plate. Twenty μL of antibody, serially diluted in ADCC medium, was dispensed to each well in triplicate. […] The plate was incubated at 22-25° C. for 30 minutes. PBMC concentration was adjusted with ADCC medium so that by adding […] of PBMC cells to the target cells, the Effector: Target cell ratio were 25:1 and 50:1, respectively. The plate was centrifuged at 250×g for 4 minutes and then incubated at 37° C. 45 minutes prior to harvesting the supernatant, 20 μL of lysis solution from the CytoTox 96 kit (Promega) was added to maximum lysis control wells. After a 5 hour incubation, the plate was centrifuged at 250×g for 4 minutes. 50 μL of supernatant from each well was transfer to a clean flat-bottom 96 well assay plate. 50 μL of substrate from CytoTox 96 kit (Promega) was added to each well and mixed for 30 seconds. The plate was incubated at room temperature for 30 minutes before 50 μL of stop solution was added to each well and mixed for 30 seconds. The absorbance was read at 490 nm. For data analysis: the % lysis is calculated using GraphPad Prism 5.0 to generate the IC50, as follows: […]

Assay [2] has as its system Daudi cells. The assay can be described thus: CDC assay. As to conditions: 10% complement. Format: cell-based. The method, then:
For CDC assay Daudi target cells were harvested and cell concentration was adjusted to 80×10^4 cells/mL with cell culture medium. To a flat-bottom 96-well white plate, 25 μL/well of cells was added. Then, 12.5 μL/well of P1C4, Rituximab, Anti-HEL-hIgG1, and Anti-HEL-hIgG2, serially diluted in ADCC medium, were added to each well in duplicate. […] The plates were incubated in the hood for 15 minutes. Human complement, diluted with ADCC medium, was added to the plates containing cells at 12.5 μL/well to reach a final concentration of 10%. For the maximum lysis wells, 5 μL of lysis solution was added. The final volume of all the wells was adjusted to 50 μL with ADCC medium. The plates were incubated at 37° C. for 2 hours before 50 μL/well of CTG solution was added to the cells. The plates were shaken on a microplate shaker for 2 minutes at a speed of 200 and then incubated at room temperature for 10 minutes. The luminescence signal was red with Envision. For data analysis, % cytotoxicity and IC50 was calculated using GraphPad Prism 5.0 as follows: […]

Regarding “Rituximab: positive control antibody in ADCC and CDC assays”, the figures for the “ADCC IC50” value with Daudi cells [1] (25:1 E/T ratio) and in the assay with Daudi cells [1] (50:1 E/T ratio) were 0.92 ng/mL and 1.19 ng/mL, respectively. For the same substance, the “CDC IC50” value in the assay on Daudi cells [2] is listed as 399 ng/mL.
